Patent publication US8003630B2, “Combinatorial therapies for the treatment of neoplasias using the opioid growth factor receptor” (The Penn State Research Foundation, priority 2004, dated 2011)
Marks after values point to notes of the source that are not given here.

Key:
SCC-1 cells [1] = test: Apoptosis, caspase-3 activity by flow cytometry in SCC-1 cells; format: cell-based, human; settings: for percentage of caspase-3 positive cells: SCC-1, one day of treatment
Experimental: Caspase-3-FITC positive staining was used to characterize early stages of apoptosis (29). SCC-1 cells were seeded into 6-well plates and treated with drugs beginning 24 hr later; drugs and media were replaced daily. Cells were harvested after 1, 3 and 6 days of drug treatment, and prepared according to manufacturer's recommendations for FACS analysis (FACS cell sorter with a 15 mW argon ion laser at 488 nm; Becton, Dickinson and Company, Franklin Lakes, N.J.). […] Three samples from each treatment were analyzed at each time point. The percent gated cells recorded by flow cytometry was considered caspase positive.

SCC-1 cells [2] = test: SCC-1 xenograft in nude mice, tumor growth, survival, termination day measurements (Example 9); settings: for latency time to develop visible tumors: controls 7 days; for Incidence of measurable tumor (day 17) / Incidence of measurable tumor (day 13): mice with tumor/N; for Incidence of measurable tumor (day 13): OGF 10 mg/kg daily and/or paclitaxel 8 mg/kg every other day i.p.; for Metastases: spleen, liver, lymph nodes
From the text: Male 4 week old nu/nu nude mice purchased from Harlan Laboratories (Indianapolis, Ind.) were housed in pathogen-free isolators in the Department of Comparative Medicine at the Penn State University College of Medicine. All procedures were approved by the IACUC committee of the Penn State University College of Medicine and conformed to the guidelines established by NIH. Mice were allowed 48 hr to acclimate prior to beginning experimentation.
Tumor cells were inoculated into nude mice by subcutaneous injection into the right scapular region. Subcutaneous injections were performed with at least 2×10^6 cells per mouse; mice were not anesthetized for this procedure.
Dosages were selected based on published reports. […] Injections of drugs were initiated 1 hr after tumor cell inoculation. […] Mice were weighed weekly to determine drug dosage.
Mice were observed daily for the presence of tumors. The latency for a visible tumor to appear, and the time until tumors were measurable (i.e., 62.5 mm^3), were recorded. Tumors were measured using calipers every day. Tumor volume was calculated using the formula w^2×1×π/6, where the length is the longest dimension, and width is the dimension perpendicular to length.
According to institutional policies and IACUC guidelines, mice were terminated when tumors became ulcerated, or tumors grew to 2 cm in diameter. […] Tumors and spleens were removed and weighed, and the lymph nodes, liver, and spleen examined for metastases.

CAL-27 cells = test: Cell proliferation assay of CAL-27 cells; format: cell-based, human; settings: 48 hr; for fewer cells than in control cultures: OGF 10^−6 M and/or paclitaxel 10^−10 M
Experimental: (§1) The UM-SCC-1 cell line (SCC-1) was derived from a well-differentiated recurrent squamous cell carcinoma in the floor of the mouth of a person (25). This cell line was obtained from The University of Michigan, Cancer Research Laboratory (Thomas E. Carey, Ph.D., Director). CAL-27 human squamous cell carcinoma cell line, derived from a poorly differentiated carcinoma of the tongue in a person ([…]), was obtained from the American Type Culture Collection (Manassas, Va.). Both cell lines were grown in Dulbecco's MEM (modified) media supplemented with 10% fetal calf serum, 1.2% sodium bicarbonate, and antibiotics (5,000 Units/ml penicillin, 5 mg/ml streptomycin, 10 mg/ml neomycin). The cell cultures were maintained in a humidified atmosphere of 7% CO2/93% air at 37° C.
(§2) Cells were seeded at equivalent amounts into either 6-well or 96-well plates (Falcon) and counted 24 hr later to determine plating efficiency.
(§3) Cell number was recorded either by using the MTS proliferation bioassay (Cell Titer 96 One Solution, Promega, Madison, Wis.) and measuring absorbency after 4 hr on a Biorad (Model 3550) plate reader at 490 nm with a 750 nm background absorbance screening, or by directly counting cells. The MTS assay utilized 10 wells/treatment. For manual counts, cells were harvested by trypsinization with 0.25% trypsin/0.53 mM EDTA, centrif uiged, and counted with a hemacytometer. Cell viability was determined by trypan blue staining. At least two aliquots per well, and 4-10 wells/treatment, were counted at each time for manual counting.

SCC-1 cells [3] = test: DNA synthesis, BrdU incorporation into SCC-1 cells; format: cell-based, human; settings: 3 days of drug treatment
Experimental: To examine DNA synthesis, SCC-1 cells were seeded onto 22 mm diameter coverglasses placed in 6-well plates (3×10^3 cells/coverglass). […] Three hours prior to fixing cells, 30 μM BrdU was added to cultures. At appropriate times, cells were rinsed, fixed in 10% neutral buffered formalin, and stained with antibodies to BrdU (Roche, Indianapolis, Ind.). The number of positive cells was recorded using fluorescence microscopy. At least 1000 cells/treatment at each time were counted.

SCC-1 cells [4] = test: Cell proliferation assays of SCC-1 cells (MTS or cell counting), Example 8; format: cell-based, human; settings: for rates of growth over the 4 day period: slopes of growth curves; for difference in cell number between reversal group and group continuing drug exposure: within 48 hr after withdrawal
Experimental: as §1, §2
The dosage of carboplatin selected was based on previous reports (27, 28), as well as preliminary studies in our laboratory.
as §3
For some experiments, the rate of growth over a 96-hr period of time was calculated using linear regression analyses. The slopes of the lines (number of cells/hr) were compared by analysis of variance. All calculations were performed with GraphPad Prism software.

SCC-1 SCCHN cells = test: SCC-1 SCCHN tumors in athymic nude mice (Examples 1c and 2)
Experimental: Tumor dimensions were recorded every day beginning on the day that the tumors were considered measurable.

[5] = day 50 (paclitaxel group: day each mouse died), means ± SEM
[6] = SCC-1, 48 hr, OGF 10^−6 M and/or paclitaxel 10^−8 M
[7] = SCC-1, 72 hr, OGF 10^−6 M and/or paclitaxel 10^−8 M
[8] = SCC-1, 96 hr, OGF 10^−6 M and/or paclitaxel 10^−8 M

CC(=O)O[C@H]1C(=O)[C@@]2(C)[C@H]([C@H](OC(=O)c3ccccc3)[C@]3(O)C[C@H](OC(=O)[C@H](O)[C@@H](NC(=O)c4ccccc4)c4ccccc4)C(C)=C1C3(C)C)[C@]1(OC(C)=O)CO[C@@H]1C[C@@H]2O [paclitaxel]
fraction of SCCHN cells apoptotic (SCC-1 cells [1]; 6 days of drug exposure): over one-half
percentage of caspase-3 positive cells (SCC-1 cells [1]): negligible
deaths during the experimental period (SCC-1 cells [2]; 50 days): only one mouse in this group was alive
latency time to develop visible tumors (SCC-1 cells [2]): comparable
mice with measurable tumors (SCC-1 cells [2]; day 13): 66%
mice with measurable tumors (SCC-1 cells [2]; day 17): 83%
Body Weight, g (SCC-1 cells [2]; [5]): 22.6 ± 0.8***+++^^^ g
Spleen Weight (SCC-1 cells [2]; [5]): 243 ± 8 mg
mice that had died by day 40 (SCC-1 cells [2]; male, nu/nu nude, mouse, in vivo, 8 mg/kg, 40 day): 75%
time within which mice began dying (SCC-1 cells [2]; male, nu/nu nude, mouse, in vivo, 50 days): ≤ 20 days
Latency to measurable tumor (SCC-1 cells [2]; means ± SEM): 14.8 ± 1.7 days
Latency to visible tumor (SCC-1 cells [2]; means ± SEM): 7.4 ± 1.4 days
Incidence of measurable tumor (day 17) (SCC-1 cells [2]): 10/12
Incidence of measurable tumor (day 13) (SCC-1 cells [2]): 8/12
body weight subnormal by (SCC-1 cells [2]; mouse, in vivo): 9-10%
gross observations and pathological findings (SCC-1 cells [2]; mouse, in vivo): distended abdomens, impacted bowel, and severe body weight loss
Metastases (SCC-1 cells [2]): none
fewer cells than in control cultures (CAL-27 cells): 35%
growth depressed from control levels (CAL-27 cells; paclitaxel 10^−7 M): 66%
growth depressed from control levels (CAL-27 cells; paclitaxel 10^−8 M): 53%
growth depressed from control levels (CAL-27 cells; paclitaxel 10^−9 M): 44%
growth depressed from control levels (CAL-27 cells; paclitaxel 10^−10 M): 22%
decrease in the number of BrdU positive cells from control levels (SCC-1 cells [3]): 24%
inhibition at 0.01 µM (SCC-1 cells [4]; Homo sapiens, read-out: inhibition of cell growth relative to control levels): 8.8 to 26%
reduction of cell number from control levels (SCC-1 cells [4]; [6]): ~33%
reduction of cell number from control levels (SCC-1 cells [4]; [7]): 25%
reduction of cell number from control levels (SCC-1 cells [4]; [8]): 51%
rates of growth over the 4 day period (SCC-1 cells [4]; SCC-1): notably reduced from control values
difference in cell number between reversal group and group continuing drug exposure (SCC-1 cells [4]; SCC-1): did not differ
average life span (SCC-1 SCCHN cells; 50-day study): 34.3 ± 3.1 days
mice with tumors (SCC-1 SCCHN cells; day 13 after tumor cell inoculation): 66%
observations on organs after premature death (SCC-1 SCCHN cells; histological analysis): distended abdomens with associated megacolon
mice that had died by day 40 (SCC-1 SCCHN cells; nude mice with SCC-1 tumors): 75%
body weight less than controls (SCC-1 SCCHN cells; nude mice with SCC-1 tumors, day 20): 11%
body weight less than controls, OGF and paclitaxel/OGF treated mice (SCC-1 SCCHN cells; nude mice with SCC-1 tumors, day 50): 28%

[Met^5]-enkephalin [OGF]
percentage of caspase-3 positive cells (SCC-1 cells [1]): negligible
latency time to develop visible tumors (SCC-1 cells [2]): 11 days
mice with measurable tumors (SCC-1 cells [2]; day 13): 33%
mice with measurable tumors (SCC-1 cells [2]; day 17): 66%
tumor volume reduction from control values (SCC-1 cells [2]; day 50): 33%
Tumor Volume, mm^3 (SCC-1 cells [2]; day 50, means ± SEM): 2590 ± 364* mm^3
Tumor Weight (SCC-1 cells [2]; day 50, means ± SEM): 1.7 ± 0.2 g
Latency to measurable tumor (days) (SCC-1 cells [2]; means ± SEM): 17.0 ± 1.5^ days
Latency to visible tumor (days) (SCC-1 cells [2]; means ± SEM): 11.2 ± 1.5^b days
Incidence of measurable tumor (day 17) (SCC-1 cells [2]): 8/12
Incidence of measurable tumor (day 13) (SCC-1 cells [2]): 4/12^a
delay of visible tumors versus controls (SCC-1 cells [2]; p<0.02): four-day delay
Metastases (SCC-1 cells [2]): none
weights of tumors reduced from control levels (SCC-1 cells [2]; termination day (day 50)): 29%
fewer cells than in control cultures (CAL-27 cells): 25%
decrease in the number of BrdU positive cells from control levels (SCC-1 cells [3]): 61%
reduction of cell number from control levels (SCC-1 cells [4]; SCC-1, MTS, 48-96 hr, OGF 10^−6 M alone or with carboplatin 10^−7 M): 8-10%
reduction of cell number from control levels (SCC-1 cells [4]; [6]): approximately 10%
reduction of cell number from control levels (SCC-1 cells [4]; [7]): 10%
reduction of cell number from control levels (SCC-1 cells [4]; [8]): 23%
decrease from control levels in absorbency readings (SCC-1 cells [4]; SCC-1, opioids 10^−6 M daily): 19%
rates of growth over the 4 day period (SCC-1 cells [4]; SCC-1): notably reduced from control values
difference in cell number between reversal group and group continuing drug exposure (SCC-1 cells [4]; SCC-1): 16%
latency time for measurable (62.5 mm^3) tumors (SCC-1 SCCHN cells; after tumor cell inoculation): ≤ 17 days
latency to a visible tumor (SCC-1 SCCHN cells; after tumor cell inoculation): ≤ 11 days
reduction of tumor size versus control mice (SCC-1 SCCHN cells; second timepoint (4th day of measurable tumors)): 26%
delay in visible tumor development (SCC-1 SCCHN cells; versus control mice): ~4 days
